Two compounds from article PMC11062899, “De novo development of small cyclic peptides that are orally bioavailable” (Nature Chemical Biology, 2023) can be followed below.

Data set [1] concerns the target T1, activated protein C (APC) (Homo sapiens, UniProt P04070).
T1 construct: purchased Molecular Innovations
Nature of the data set: Target specificity profiling: activated protein C. The data set is classed as biochemical. Particulars: replicates R1-R3. Here is the method: The protease specificity was assessed by testing the inhibition of a series of trypsin-like serine proteases using fluorogenic or chromogenic substrates. Peptide dilutions ranging from 40 μM to 40 nM were prepared for all proteases except thrombin (1 μM to 1 nM). […]. The following fluorogenic substrates were used at a final concentration of 50 μM: Z-Gly-Gly-Arg-AMC (Bachem) for thrombin and trypsin; Z-Phe-Arg-AMC (Bachem) for plasma kallikrein; Boc-Phe-Ser-Arg-AMC (Bachem) for factor XIa; and Boc-Gln-Gly-Arg-AMC (Bachem) for factor XIIa. […]. Reactions were performed in a volume of 150 μl in 96-well plates. A volume of 50 μl of twofold dilutions of macrocycle in assay buffer was pipetted into the wells of the plates. A volume of 50 μl of protease in assay buffer was added to each well and incubated for 15 min. A volume of 50 μl of substrate in assay buffer containing 3% DMSO was added. Fluorescence intensity was measured for 30 min using an Infinite M200 Pro plate reader (Tecan; excitation at 368 nm, emission at 467 nm), with one measurement every minute. For APC protease, absorbance was measured at 405 nm using the same plate reader for a period of 30 min with one reading every minute. Reactions were performed at 25 °C. Data were analyzed by Excel (version 2016).

The nature of data set [2]: Measurement of in vivo gastrointestinal stability in rats. Also noted: species or system rat. To be noted: for Concentration in organ extract: rat n = 1, 30 min after p.o. 10 mg kg^−1. How it is done:
Peptide 43 was dissolved in 10% Cremophor EL and 5% DMSO in water at a concentration of 1 mg ml^−1 and administrated by oral gavage to a rat at a dose of 10 mg kg^−1. The rat was killed 30 min after the administration using a CO2 chamber followed by cervical dislocation. Stomach, small intestine (duodenum/jejunum and ileum were collected separately) and large intestine were removed and immediately frozen in pre-cooled containers on dry ice. Organs and their respective content were collected separately to facilitate homogenization and sample processing. The organs were homogenized using a mortar and pestle on dry ice and liquid nitrogen to avoid thawing of the samples. Peptides were extracted by addition of 2 ml of extraction buffer containing 50 mM Tris-HCl (pH 8.0), 150 mM NaCl, 5 mM EDTA, 0.01% Triton-X, 1 mM PMSF and protease inhibitor cocktail (Sigma-Aldrich, P8340) per gram of organ or organ content weight and sonicating the resulting suspension for 5 min. Samples were centrifuged at 16,000g for 10 min, and 40 μl of the resulting supernatant was mixed with 120 μl of a cold acetonitrile:water (9:1) solution containing an internal standard (5 μg ml^−1). Samples were analyzed and quantified by LC–MS as described above.

Where “and” joins values, the source holds several entries; their conditions need not be identical. Identical values can stand only once.

T1 sequence (P04070 212-461 limits assumed): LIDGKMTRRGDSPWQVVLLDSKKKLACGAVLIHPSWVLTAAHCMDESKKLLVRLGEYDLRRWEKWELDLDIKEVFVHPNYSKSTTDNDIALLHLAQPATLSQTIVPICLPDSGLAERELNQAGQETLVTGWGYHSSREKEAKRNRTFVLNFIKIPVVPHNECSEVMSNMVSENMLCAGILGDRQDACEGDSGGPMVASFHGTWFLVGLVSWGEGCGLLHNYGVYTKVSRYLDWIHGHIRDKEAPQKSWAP
T1 sequence (P04070 43-197 partner limits assumed): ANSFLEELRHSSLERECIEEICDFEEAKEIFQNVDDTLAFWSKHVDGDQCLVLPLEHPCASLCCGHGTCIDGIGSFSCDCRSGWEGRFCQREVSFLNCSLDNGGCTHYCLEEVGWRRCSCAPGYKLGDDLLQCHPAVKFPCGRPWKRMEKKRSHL

On to `O=C1C[C@H]2CCCN2C(=O)[C@H](Cc2ccccc2)NC(=O)[C@@H](NC(=O)c2ccc(Cl)cc2)CCC=CCCCCN1` (mixture of isomers) [peptide 46], for which the “Residual protease activity, APC” value in data set [1] (inhibitor 1.00E+04 nM) is 101.7 and 94.1 and 93.6; in data set [1] (inhibitor 1.25E+03 nM) it was 93.2 and 97.3 and 95.1; in data set [1] (inhibitor 1.56E+02 nM), 95.1 and 104.3 and 101.7; in data set [1] (inhibitor 2.00E+04 nM), 94.9 and 98.4 and 96.8; in data set [1] (inhibitor 2.50E+03 nM) it was 94.9 and 96.5 and 96.6; in data set [1] (inhibitor 3.12E+02 nM), 95.1 and 90.6 and 94.4. For the same compound, the “Residual protease activity, APC” value in data set [1] (inhibitor 3.91E+01 nM) is 96.3 and 96.7 and 99.0; in data set [1] (inhibitor 4.00E+04 nM), 95.7 and 97.0 and 95.5; in data set [1] (inhibitor 5.00E+03 nM) it was 98.3 and 99.0 and 99.1; in data set [1] (inhibitor 6.25E+02 nM) it was 100.4 and 91.2 and 89.1; in data set [1] (inhibitor 7.81E+01 nM), 108.2 and 108.3 and 107.3.

For the compound `O=C1C[C@H]2CCCN2C(=O)[C@H](Cc2ccccc2)NC(=O)[C@@H](NC(=O)c2ccc(Cl)s2)CCC=CCCCCN1` [peptide 43], the “Concentration in organ extract” value in data set [2] (Large intestine - content) was determined as 656 nM; in data set [2] (Large intestine), 500 nM; in data set [2] (Lower small instestine - content) it was 2900 nM; in data set [2] (Lower small instestine), 600 nM; in data set [2] (Stomach - content), 87600 nM; in data set [2] (Stomach) it was 31600 nM. The “Concentration in organ extract” value in data set [2] (Upper small instestine - content) was 13100 nM; in data set [2] (Upper small instestine), 2600 nM. For the same compound, the “in vivo gastrointestinal stability” value in data set [2] (rats, 10 mg kg^−1 p.o., 30 min, stomach, small and large intestine) was “large fraction of the peptide fully intact”.
